Source: US20260365633A1, “Novel PEM Structures for SBX” (Roche Sequencing Solutions, Inc., priority 2023, published 2026)
Positions count from the first letter of the chain named.

Key:
C4552 DNA polymerase = target: T1, C4552 DNA polymerase (Saccharolobus solfataricus, UniProt Q97W02, A155G/A42V/D156R/D292Y/D294N/E291S/E324K/E325K/E327K/E79L/G187P/G299W/I153V/I189F/I248T/I295S/K152A/K317Q/K321Q/K56Y/K78D/L293W/M76W/N188Y/P184Q/Q82W/Q83G/R300S/S297Y/S86E/T290K/T301W/V289W/V296Q); experiment: Primer extension on HIV1, HIV2, HIV3 100mer templates with C4552 polymerase, gel; assay type: biochemical, Sulfolobus solfataricus; settings: 0.5 Mm PEM, 30 minutes at 23 °C, three 100mer templates, FIG. 9
T1 construct: Tth SSB in reaction as additive
T1 sequence (Q97W02 1-340 A155G/A42V/D156R/D292Y/D294N/E291S/E324K/E325K/E327K/E79L/G187P/G299W/I153V/I189F/I248T/I295S/K152A/K317Q/K321Q/K56Y/K78D/L293W/M76W/N188Y/P184Q/Q82W/Q83G/R300S/S297Y/S86E/T290K/T301W/V289W/V296Q): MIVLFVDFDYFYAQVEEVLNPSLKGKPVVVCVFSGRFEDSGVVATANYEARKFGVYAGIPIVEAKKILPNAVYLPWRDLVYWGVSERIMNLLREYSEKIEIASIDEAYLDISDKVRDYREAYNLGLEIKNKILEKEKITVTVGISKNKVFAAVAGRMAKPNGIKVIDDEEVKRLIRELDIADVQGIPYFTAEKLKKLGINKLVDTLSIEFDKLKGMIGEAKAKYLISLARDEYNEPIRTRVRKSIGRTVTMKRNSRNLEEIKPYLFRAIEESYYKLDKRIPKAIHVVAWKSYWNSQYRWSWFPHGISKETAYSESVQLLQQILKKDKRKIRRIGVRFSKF
Experimental: PEM activity of compounds 9-11 was tested in primer extension assays using three 100mer templates, derived from the HIV1, 2, and 3 genomes. Primer extension reactions included the following reagents: 75 Mm TrisCl, Ph 8.44, 175 Mm NH40ac, 20% PEG8K, 5% NMS, 0.8 nmol PP-60.20, 0.6 Mm MnCl2, 2.3 μg Tth single-strand binding protein (SSB), 0.5 M or 1 M urea, 200 pmol each XNTP, 1.1 pmol template, 1 pmol [COMPOUND LEFT OUT] primer, 1.2 μg purified recombinant C4552 DNA polymerase, and 0.5 Mm PEM. 10 μL primer extension reactions were run for 30 minutes at 23 °C and reaction products were analyzed by gel electrophoresis.

[1] = target: T2, C4760 DNA polymerase (a variant of DPO4) (Saccharolobus solfataricus, UniProt Q97W02, A155G/A42V/D156R/D292Y/D294N/E291S/E324K/E325K/E327K/E63R/E79L/G187P/G299W/I153V/I189F/I248T/I295S/K152A/K317Q/K321Q/K56Y/K78D/L293W/M76W/N188Y/P184Q/Q82W/Q83G/R300S/S297Y/S86E/T290K/T301W/V289W/V296Q); experiment: Primer extension on 411mer amplicon template with C4760 polymerase, gel; assay type: biochemical, Sulfolobus solfataricus
T2 construct: Eco or Kod SSB in reaction as additive
T2 sequence (Q97W02 1-340 A155G/A42V/D156R/D292Y/D294N/E291S/E324K/E325K/E327K/E63R/E79L/G187P/G299W/I153V/I189F/I248T/I295S/K152A/K317Q/K321Q/K56Y/K78D/L293W/M76W/N188Y/P184Q/Q82W/Q83G/R300S/S297Y/S86E/T290K/T301W/V289W/V296Q): T1 sequence (Q97W02 1-340 A155G/A42V/D156R/D292Y/D294N/E291S/E324K/E325K/E327K/E79L/G187P/G299W/I153V/I189F/I248T/I295S/K152A/K317Q/K321Q/K56Y/K78D/L293W/M76W/N188Y/P184Q/Q82W/Q83G/R300S/S297Y/S86E/T290K/T301W/V289W/V296Q) with E63R
Experimental: PEM activity of compound 15 was tested in primer extension assays using a 411mer amplicon template. Primer extension reactions included the following reagents: 50 Mm TrisCl, 200 Mm NH40ac, 20% PEG8K, 5% NMS, 3 nmol PP-60.20, 2 Mm MnCl2, 2 μg Kod single-strand binding protein (SSB), 1 M urea, 250 pmol each XNTP, 1 pmol template, 1 pmol [COMPOUND LEFT OUT] primer, 1.2 μg purified recombinant C4760 DNA polymerase (a variant of DPO4, see SEQ ID NO: 2), and 2 (lane 2) or 3 (lane 3) Mm PEM. 10 μL primer extension reactions were run for 20 minutes at 37 °C and reaction products were analyzed by gel electrophoresis. A representative gel showing primer extension products is presented in FIG. 12 (the position of a 277mer is indicated by the arrow). […] Remarkably, the polymerase is completely dependent upon the addition of PEM to the reaction in order to be capable of synthesizing these lengthy Xpandomer products. Even longer extension products may be obtained by optimizing various reaction parameters, e.g., extension time and/or concentrations of various additives.
PEM activity of compound 19, was tested in primer extension assays using the 411mer amplicon template. […] 10 μL primer extension reactions were run for 30 minutes at 37 °C and reaction products were analyzed by gel electrophoresis. […]

DNA polymerase [2] = experiment: SBX nanopore sequencing of primer extension products, histogram of aligned reads; assay type: biochemical
Text: To investigate the accuracy of PEM-dependent enhancement of XNTP polymerization, primer extension products were sequenced using the SBX protocol. Briefly, the constrained Xpandomer products of XNTP polymerization are cleaved to generate linearized Xpandomers. This is accomplished by first quenching the extension reaction with a solution containing 100 Mm EDTA, 2 Mm THPTA, and 2% Tween-20. Then the sample is subjected to amine modification with a solution of 1 M NaHCO3 and 1 M succinic anhydride in DMF. Cleavage of the phosphoramidate bonds is carried out with 37% HCl and linearized Xpandomers are purified with QIAquick columns (QIAGEN, Inc.).
For sequencing, protein nanopores are prepared by inserting a-hemolysin into a DphPE/hexadecane bilayer member in buffer B1, containing 2 M NH4Cl and 100 Mm HEPES, Ph 7.4. The cis well is perfused with buffer B2, containing 0.4 M NH4Cl, 0.6 M GuCl, and 100 Mm HEPES, Ph 7.4. The Xpandomer sample is heated to 70 °C for 2 minutes, cooled completely, then a 2 μL sample is added to the cis well. A voltage pulse of 90Mv/390Mv/10 μs is then applied and data is acquired via Labview acquisition software.
Sequence data is analyzed by histogram display of the population of sequence reads from a single SBX reaction. […] Representative histograms of SBX sequencing of a 45mer template are presented in FIG. 6A (no additive control) and FIG. 6B (SBX in the presence of PEM compound 1).

DNA polymerase [3] = experiment: Primer extension with XNTPs, gel electrophoresis (PEM screen, 45mer template); assay type: biochemical; settings: 45mer template, FIG. 4, vs no PEM additive (up to only around 14 XNTPs)
Text: The Sequencing by Expansion (SBX) methodology developed by the inventors provides significant performance enhancements in sequence read efficiency and accuracy of Xpandomers relative to native DNA. However, initial transcription of the sequence of the natural DNA template onto the measurable Xpandomer relies on the ability of DNA polymerase to utilize XNTPs as substrates (the generalized structure of an XNTP is discussed herein with reference to FIG. 1A and FIG. 2). […] In an effort to improve the efficiency and accuracy of XNTP polymerization into Xpandomers, several PEMs were screened for the ability to enhance DNA polymerase primer extension reactions using XNTPs as substrates.
A representative primer extension reaction may include the following reagents: 2 pmol primer, 2.2 pmol 45mer [COMPOUND LEFT OUT] template, 50 pmol of each XNTP (XATP, XCTP, XGTP, and XTTP), 50 Mm Tris HCl, Ph 6.79, 200 Mm NaCl, 20% PEG, 5% NMS, 0.5 nmol polyphosphate 60.19, 0.3 Mm MnCl2, and 0.6 μg of purified recombinant DNA polymerase protein. Reactions may be run for 1 hour at 23 °C. Reaction products (i.e., constrained Xpandomers) are treated to cleave the phosphoramidate bonds, thereby generating linearized Xpandomers. Reaction products may be analyzed using gel electrophoresis on 4-12% acrylamide gels to resolve and visualize Xpandomer products of different lengths. For the PEM screen described above, PEMs were typically tested in the micro to millimolar range.

O=C(O)c1ccc(-n2cc(-c3cc([N+](=O)[O-])cc(-c4cn(-c5ccc(C(=O)O)c(O)c5)nn4)n3)nn2)cc1O [Compound 11, 4,4′-((4-nitropyridine-2,6-diyl)bis(1H-1,2,3-triazole-4,1-diyl))bis(2-hydroxybenzoic acid)]
XNTP polymerization efficiency relative to compound 1 (C4552 DNA polymerase): at least as efficiently as compound 1

CCOC(=O)c1cc(-c2cn(-c3ccc(O)c(C(=O)O)c3)nn2)nc(-c2cn(-c3ccc(O)c(C(=O)O)c3)nn2)c1 [Compound 15, 5,5′-((4-(ethoxycarbonyl)pyridine-2,6-diyl)bis(1H-1,2,3-triazole-4,1-diyl))bis(2-hydroxybenzoic acid)]
XNTP polymerization relative to compound 14 ([1]; 2 or 3 Mm PEM, 20 minutes at 37 °C, FIG. 12): comparable to that of compound 14

NC(=O)c1cc(-c2cn(-c3ccc(C(=O)O)c(O)c3)nn2)nc(-c2cn(-c3ccc(C(=O)O)c(O)c3)nn2)c1 [Compound 19, 4,4′-((4-carbamoylpyridine-2,6-diyl)bis(1H-1,2,3-triazole-4,1-diyl))bis(2-hydroxybenzoic acid)]
XNTP polymerization relative to compound 14 ([1]; 0.5, 1, or 1.5 Mm PEM, 30 minutes at 37 °C, FIG. 14): less efficient than that of compound 14

O=C(O)c1ccc(-n2cc(-c3cccc(-c4cn(-c5ccc(C(=O)O)c(O)c5)nn4)n3)nn2)cc1O [Compound 1, 4,4′-(pyridine-2,6-diylbis(1H-1,2,3-triazole-4,1-diyl))bis(2-hydroxybenzoic acid)]
accuracy of sequence reads (DNA polymerase [2]; 45mer template, FIG. 6B, vs no additive (not accurate past around base 18)): increased the accuracy of the sequence reads across the entire length of the 45mer template | sequence reads (DNA polymerase [2]; 60mer template, FIG. 7A): accurate sequence reads completely to the end | sequence reads (DNA polymerase [2]; 80mer template, FIG. 7B): accurate sequence reads completely to the end | primer extension products with XNTPs (DNA polymerase [3]): considerably longer extension products

COc1cc(-c2cn(-c3ccc(C(=O)O)c(O)c3)nn2)nc(-c2cn(-c3ccc(C(=O)O)c(O)c3)nn2)c1 [Compound 9, 4,4′-((4-methoxypyridine-2,6-diyl)bis(1H-1,2,3-triazole-4,1-diyl))bis(2-hydroxybenzoic acid)]
XNTP polymerization efficiency relative to compound 1 (C4552 DNA polymerase): at least as efficiently as compound 1
